US20210171503A1, “GLYCOLATE OXIDASE INHIBITORS AND USE THEREOF” (ORFAN BIOTECH INC., priority 2017, published 2021)
Where a name gives a salt, the structure may show the parent alone.

Target: T1, mouse glycolate oxidase (mGO) (Mus musculus, UniProt Q9WU19)
T1 construct: His6 (N); made in house; host or cells: E. coli BL21 (DE3)
T1 sequence (Q9WU19 1-370): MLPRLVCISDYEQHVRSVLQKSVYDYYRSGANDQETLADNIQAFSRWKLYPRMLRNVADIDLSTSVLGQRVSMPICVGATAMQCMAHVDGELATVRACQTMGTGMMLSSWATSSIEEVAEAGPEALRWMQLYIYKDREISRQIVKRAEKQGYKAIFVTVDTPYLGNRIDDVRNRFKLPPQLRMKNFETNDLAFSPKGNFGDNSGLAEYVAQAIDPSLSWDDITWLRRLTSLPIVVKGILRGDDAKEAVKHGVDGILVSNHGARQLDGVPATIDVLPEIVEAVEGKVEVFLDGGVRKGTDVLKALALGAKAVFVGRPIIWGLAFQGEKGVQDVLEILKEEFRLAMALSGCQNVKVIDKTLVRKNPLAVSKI
Experiment: In vitro inhibition of mouse glycolate oxidase (mGO), HRP-coupled Trinder reaction
Type: biochemical
Details: compound tested at 100 μM; 40 mM glycolic acid as substrate; activity calculated at 1 minute
Experimental: Protein expression. BL21 (DE3) E. coli transformed with recombinant pET-15b expression vector containing mouse Hao1 cDNA with an N-terminal His6 tag was grown in LB medium in the presence of 0.1 mg/mL ampicillin. For purification of recombinant mGO expressed in BL21 E. coli, bacteria pellets were thawed and re-suspended in 2 mL lysis buffer (50 mM NaH2PO4, 300 mM NaCl, 10 mM imidazole, 50 μM flavin mononucleotide (FMN), pH 7.5), and then treated for 30 minutes with 1 mM phenylmethylsulfonyl fluoride (PMSF) for protease inhibition, 0.1% Triton X-100 and 0.2 mg/mL lysozyme to break cellular membranes. After sonication, cells were centrifuged and the supernatant containing the total cellular extract (pre-column fraction) was loaded into a Ni-NTA agarose column, and incubated for 30 minutes at 4° C. to allow binding. The column was washed with two bed volumes of lysis buffer with 20 mM imidazole to eliminate unbound proteins (wash fraction). mGO was eluted using the same buffer containing 300 mM imidazole. Fractions containing purified GO were dialyzed against 300 mL of dialysis buffer (50 mM NaH2PO4, 300 mM NaCl, pH 7.5) at 4° C. with agitation overnight, and then kept at 4° C. in darkness. Protein was quantified by the bicinchoninic acid (BCA) assay.
Inhibition assays. Enzymatic activity of mGO was determined in the presence of glycolate as substrate (40 mM glycolic acid) and phosphate buffer (50 mM KPO4, 0.1 mM EDTA, pH 7). The production of glyoxylate was indirectly measured by the quantification of hydrogen peroxide formed during the first oxidation reaction. This hydrogen peroxide reacted with 4.9 mM 4-aminoantipyrine and 0.1 mM sulphonated […] in a coupled horseradish peroxidase (HRP) reaction that yields a quinoneimine dye (FIG. 1) measured at 515 nm (Trinder reaction). Enzymatic activity was calculated at 1 minute after initiation of the Trinder reaction.

Row | Structure (SMILES) | inhibition at 100 µM [%]
1 | Cc1onc(C(=O)O)c1Nc1ccc(Cc2ccc(F)cc2)cc1 [Compound 54, 4-((4-(4-fluorobenzyl)phenyl)amino)-5-methylisoxazole-3-carboxylic Acid] | < 30
2 | Cc1onc(C(=O)O)c1Nc1ccc(CCc2ccc(F)cc2)cc1 [Compound 56, 4-((4-(4-fluorophenethyl)phenyl)amino)-5-methylisoxazole-3-carboxylic Acid] | 30 to 60
3 | COc1ccc(CN(c2ccc(-c3ccc(C#N)cc3)cc2)c2c(C(=O)O)n[nH]c2C)cc1 [Compound 57, 4-((4′-cyano-[1,1′-biphenyl]-4-yl)(4-methoxybenzyl)amino)-5-methyl-1H-pyrazole-3-carboxylic Acid] | 30 to 60
4 | Cc1[nH]nc(C(=O)O)c1Nc1ccc(Cc2ccc(OCCOC3CN(C(=O)OC(C)(C)C)C3)cc2)cc1 [Compound 59, 4-((4-(4-(2-((1-(tert-butoxycarbonyl)azetidin-3-yl)oxy)ethoxy)benzyl)phenyl)amino)-5-methyl-1H-pyrazole-3-carboxylic Acid] | < 30
5 | Cc1[nH]nc(C(=O)O)c1Nc1ccc(Cc2ccc(OCCOC3CNC3)cc2)cc1 [Compound 60, 4-((4-(4-(2-(azetidin-3-yloxy)ethoxy)benzyl)phenyl)amino)-5-methyl-1H-pyrazole-3-carboxylic Acid hydrochloride] | < 30
6 | Cc1[nH]nc(C(=O)O)c1Nc1ccc(Cc2ccc(OCCC3CCN(C(=O)OC(C)(C)C)CC3)cc2)cc1 [Compound 61, 4-((4-(4-(2-(1-(tert-butoxycarbonyl)piperidin-4-yl)ethoxy)benzyl)phenyl)amino)-5-methyl-1H-pyrazole-3-carboxylic Acid] | > 60
7 | Cc1[nH]nc(C(=O)O)c1Nc1ccc(Cc2ccc(OCCC3CCNCC3)cc2)cc1 [Compound 62, 5-methyl-4-((4-(4-(2-(piperidin-4-yl)ethoxy)benzyl)phenyl)amino)-1H-pyrazole-3-carboxylic Acid hydrochloride] | < 30
8 | Cc1[nH]nc(C(=O)O)c1Nc1ccc(Cc2ccc(OCCN3CCN(C(=O)OC(C)(C)C)CC3)cc2)cc1 [Compound 63, 4-((4-(4-(2-(4-(tert-butoxycarbonyl)piperazin-1-yl)ethoxy)benzyl)phenyl)amino)-5-methyl-1H-pyrazole-3-carboxylic Acid] | < 30
9 | Cc1[nH]nc(C(=O)O)c1Nc1ccc(Cc2ccc(OCCN3CCNCC3)cc2)cc1 [Compound 64, 5-methyl-4-((4-(4-(2-(piperazin-1-yl)ethoxy)benzyl)phenyl)amino)-1H-pyrazole-3-carboxylic Acid hydrochloride] | < 30
10 | Cc1[nH]nc(C(=O)O)c1Nc1ccc(Cc2ccc(OCCCCN3CCOCC3)cc2)cc1 [Compound 65, 5-methyl-4-((4-(4-(4-morpholinobutoxy)benzyl)phenyl)amino)-1H-pyrazole-3-carboxylic Acid] | < 0
11 | Cc1[nH]nc(C(=O)O)c1Nc1ccc(CCc2ccc(F)cc2)cc1 [Compound 66, 4-((4-(4-Fluorophenethyl)phenyl)amino)-3-methyl-1H-pyrazole-5-carboxylic Acid] | < 30
12 | COc1ccc(CN(c2ccc(CCc3ccc(F)cc3)cc2)c2c(C(=O)O)n[nH]c2C)cc1 [Compound 67, 4-((4-(4-Fluorophenethyl)phenyl)(4-methoxybenzyl)amino)-3-methyl-1H-pyrazole-5-carboxylic Acid] | > 60
13 | CC(C)(C)OC(=O)N1CC(OCCOc2ccc(Cc3ccc(Nc4ccnnc4C(=O)O)cc3)cc2)C1 [Compound 68 Na salt, 4-((4-(4-(2-((1-(tert-butoxycarbonyl)azetidin-3-yl)oxy)ethoxy)benzyl)phenyl)amino)pyridazine-3-carboxylic Acid sodium Salt] | > 60
14 | CC(C)(C)OC(=O)N1CCC(CCOc2ccc(Cc3ccc(Nc4ccnnc4C(=O)O)cc3)cc2)CC1 [Compound 70, 4-((4-(4-(2-(1-(tert-Butoxycarbonyl)piperidin-4-yl)ethoxy)benzyl)phenyl)amino)pyridazine-3-carboxylic Acid] | > 60
15 | O=C(O)c1nnccc1Nc1ccc(Cc2ccc(OCCC3CCNCC3)cc2)cc1 [Compound 71, 4-((4-(4-(2-(Piperidin-4-yl)ethoxy)benzyl)phenyl)amino)-pyridazine-3-carboxylic Acid hydrochloride] | 30 to 60
16 | CC(C)(C)OC(=O)N1CCN(CCOc2ccc(Cc3ccc(Nc4ccnnc4C(=O)O)cc3)cc2)CC1 [Compound 72 Na salt, 4-((4-(4-(2-(4-(tert-Butoxycarbonyl)piperazin-1-yl)ethoxy)-benzyl)phenyl)amino)pyridazine-3-carboxylic Acid Sodium Salt] | > 60
17 | CCCCCC(Sc1c(C(=O)O)noc1C)c1ccc(F)cc1 (stereo not drawn) [Compound 75, 4-((1-(4-fluorophenyl)hexyl)thio)-5-methylisoxazole-3-carboxylic Acid] | 30 to 60
18 | O=C(O)c1nnccc1SCc1ccccc1 [Compound 76, 4-(Benzylthio)pyridazine-3-carboxylic Acid] | < 30
19 | CCCCCC(Sc1ccnnc1C(=O)O)c1ccc(F)cc1 (stereo not drawn) [Compound 77, 4-((1-(4-Fluorophenyl)hexyl)thio)pyridazine-3-carboxylic Acid] | 30 to 60
20 | CCCC/C=C(/SC1=C(C(=O)O)NNC=C1)c1ccc(F)cc1 [Compound 78, (E)-4-((1-(4-Fluorophenyl)hex-1-en-1-yl)thio)-1,2-dihydropyridazine-3-carboxylic Acid] | < 30
21 | CCCCCC(Sc1c(C(=O)O)n[nH]c1C)c1ccc(F)cc1 (stereo not drawn) [Compound 79, 4-((1-(4-Fluorophenyl)hexyl)thio)-5-methyl-1H-pyrazole-3-carboxylic Acid] | > 60
